Assay results reported in ChEMBL document CHEMBL4706583, “2-Anilinoquinoline based arylamides as broad spectrum anticancer agents with B-RAF/C-RAF kinase inhibitory effects: Design, synthesis, in vitro cell-based and oncogenic kinase assessments” (Eur J Med Chem, 2020).

Legend:
LOX IMVI [1] = test: Growth inhibition of human LOX IMVI cells at 10 uM measured after 48 hrs by SRB assay relative to control; assay type: functional; conditions: read-out: GI
HL-60(TB) = test: Growth inhibition of human HL-60(TB) cells measured after 48 hrs by SRB assay; assay type: functional
EKVX = test: Growth inhibition of human EKVX cells measured after 48 hrs by SRB assay; assay type: functional
NCI-H23 = test: Growth inhibition of human NCI-H23 cells measured after 48 hrs by SRB assay; assay type: functional
NCI-H460 = test: Growth inhibition of human NCI-H460 cells measured after 48 hrs by SRB assay; assay type: functional
HCT-116 [2] = test: Growth inhibition of human HCT-116 cells measured after 48 hrs by SRB assay; assay type: functional
HCT-15 = test: Growth inhibition of human HCT-15 cells measured after 48 hrs by SRB assay; assay type: functional
HT-29 = test: Growth inhibition of human HT-29 cells measured after 48 hrs by SRB assay; assay type: functional; conditions: for CC50: read-out: LC50 (the source's name)
KM12 = test: Growth inhibition of human KM12 cells measured after 48 hrs by SRB assay; assay type: functional
U-251 = test: Growth inhibition of human U-251 cells measured after 48 hrs by SRB assay; assay type: functional
LOX IMVI [3] = test: Growth inhibition of human LOX IMVI cells measured after 48 hrs by SRB assay; assay type: functional; conditions: for CC50: read-out: LC50 (the source's name)
MDA-MB-435 = test: Growth inhibition of human MDA-MB-435 cells measured after 48 hrs by SRB assay; assay type: functional
SK-MEL-5 = test: Growth inhibition of human SK-MEL-5 cells measured after 48 hrs by SRB assay; assay type: functional
IGROV-1 = test: Growth inhibition of human IGROV-1 cells measured after 48 hrs by SRB assay; assay type: functional
OVCAR-4 = test: Growth inhibition of human OVCAR-4 cells measured after 48 hrs by SRB assay; assay type: functional
OVCAR-5 = test: Growth inhibition of human OVCAR-5 cells measured after 48 hrs by SRB assay; assay type: functional
NCI/ADR-RES = test: Growth inhibition of human NCI/ADR-RES cells measured after 48 hrs by SRB assay; assay type: functional
SK-OV-3 = test: Growth inhibition of human SK-OV-3 cells measured after 48 hrs by SRB assay; assay type: functional
ACHN = test: Growth inhibition of human ACHN cells measured after 48 hrs by SRB assay; assay type: functional
UO-31 = test: Growth inhibition of human UO-31 cells measured after 48 hrs by SRB assay; assay type: functional
PC-3 = test: Growth inhibition of human PC-3 cells measured after 48 hrs by SRB assay; assay type: functional
DU-145 = test: Growth inhibition of human DU-145 cells measured after 48 hrs by SRB assay; assay type: functional
Hs-578T = test: Growth inhibition of human Hs-578T cells measured after 48 hrs by SRB assay; assay type: functional
BT-549 = test: Growth inhibition of human BT-549 cells measured after 48 hrs by SRB assay; assay type: functional
MDA-MB-468 = test: Growth inhibition of human MDA-MB-468 cells measured after 48 hrs by SRB assay; assay type: functional
[4] = Cytotoxicity against African green monkey Vero cells assessed as cell viability at 3 uM measured after 48 hrs by EZ-Cytox assay relative to control; assay type: cell-based; conditions: chlorocebus sabaeus, read-out: Activity
HCT-116 [5] = test: Induction of apoptosis in human HCT-116 cells assessed as viable cells at 1.25 uM measured after 24 hrs by Annexin-V Alexa Fluor488/propidium iodide staining based flow cytometry (reference value: 88.1%); assay type: functional; conditions: read-out: Activity
HCT-116 [6] = test: Induction of apoptosis in human HCT-116 cells assessed as early apoptotic cells at 1.25 uM measured after 24 hrs by Annexin-V Alexa Fluor488/propidium iodide staining based flow cytometry (reference value: 6.3%); assay type: functional
HCT-116 [7] = test: Induction of apoptosis in human HCT-116 cells assessed as late apoptotic cells at 2.5 uM measured after 24 hrs by Annexin-V Alexa Fluor488/propidium iodide staining based flow cytometry (reference value: 1%); assay type: functional
HCT-116 [8] = test: Induction of apoptosis in human HCT-116 cells assessed as necrotic cells at 2.5 uM measured after 24 hrs by Annexin-V Alexa Fluor488/propidium iodide staining based flow cytometry (reference value: 4.6%); assay type: functional
HCT-116 [9] = test: Induction of apoptosis in human HCT-116 cells assessed as viable cells at 5 uM measured after 24 hrs by Annexin-V Alexa Fluor488/propidium iodide staining based flow cytometry (reference value: 88.1%); assay type: functional; conditions: read-out: Activity
HCT-116 [10] = test: Induction of apoptosis in human HCT-116 cells assessed as early apoptotic cells at 5 uM measured after 24 hrs by Annexin-V Alexa Fluor488/propidium iodide staining based flow cytometry (reference value: 6.3%); assay type: functional
HCT-116 [11] = test: Induction of apoptosis in human HCT-116 cells assessed as late apoptotic cells at 5 uM measured after 24 hrs by Annexin-V Alexa Fluor488/propidium iodide staining based flow cytometry (reference value: 1%); assay type: functional
HCT-116 [12] = test: Induction of apoptosis in human HCT-116 cells assessed as late apoptotic cells at 1.25 uM measured after 48 hrs by Annexin-V Alexa Fluor488/propidium iodide staining based flow cytometry (reference value: 2.2%); assay type: functional
HCT-116 [13] = test: Induction of apoptosis in human HCT-116 cells assessed as necrotic cells at 1.25 uM measured after 48 hrs by Annexin-V Alexa Fluor488/propidium iodide staining based flow cytometry (reference value: 7.7%); assay type: functional
HCT-116 [14] = test: Induction of apoptosis in human HCT-116 cells assessed as viable cells at 2.5 uM measured after 48 hrs by Annexin-V Alexa Fluor488/propidium iodide staining based flow cytometry (reference value: 82.3%); assay type: functional; conditions: read-out: Activity
HCT-116 [15] = test: Induction of apoptosis in human HCT-116 cells assessed as late apoptotic cells at 2.5 uM measured after 48 hrs by Annexin-V Alexa Fluor488/propidium iodide staining based flow cytometry (reference value: 2.2%); assay type: functional
HCT-116 [16] = test: Induction of apoptosis in human HCT-116 cells assessed as early apoptotic cells at 5 uM measured after 48 hrs by Annexin-V Alexa Fluor488/propidium iodide staining based flow cytometry (reference value: 7.7%); assay type: functional
HCT-116 [17] = test: Induction of apoptosis in human HCT-116 cells assessed as late apoptotic cells at 5 uM measured after 48 hrs by Annexin-V Alexa Fluor488/propidium iodide staining based flow cytometry (reference value: 2.2%); assay type: functional
[18] = biological target: RAF proto-oncogene serine/threonine-protein kinase (Homo sapiens, UniProt P04049); test: Inhibition of human CRAF using MEK1 (K97R) as substrate in presence of [gamma-33P]ATP by scintillation counting method
Sequence of RAF proto-oncogene serine/threonine-protein kinase (P04049 whole entry): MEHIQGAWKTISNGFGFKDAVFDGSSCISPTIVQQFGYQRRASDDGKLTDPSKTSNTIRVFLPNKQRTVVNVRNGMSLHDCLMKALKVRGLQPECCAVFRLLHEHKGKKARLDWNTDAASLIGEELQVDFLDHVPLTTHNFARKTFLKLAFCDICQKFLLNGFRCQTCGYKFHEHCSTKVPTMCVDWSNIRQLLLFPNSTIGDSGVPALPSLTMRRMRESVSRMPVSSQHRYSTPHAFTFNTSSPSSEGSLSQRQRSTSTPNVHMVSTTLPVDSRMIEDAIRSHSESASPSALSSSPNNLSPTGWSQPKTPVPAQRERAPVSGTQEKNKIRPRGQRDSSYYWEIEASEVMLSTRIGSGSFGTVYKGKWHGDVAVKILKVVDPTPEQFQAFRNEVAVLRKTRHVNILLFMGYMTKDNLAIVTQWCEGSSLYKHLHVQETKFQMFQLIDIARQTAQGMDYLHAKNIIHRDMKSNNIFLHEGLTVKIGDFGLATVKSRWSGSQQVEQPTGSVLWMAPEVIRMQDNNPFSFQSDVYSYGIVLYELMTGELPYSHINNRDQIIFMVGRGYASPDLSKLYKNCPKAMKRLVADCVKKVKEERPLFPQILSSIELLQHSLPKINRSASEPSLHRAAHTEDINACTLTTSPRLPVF

## COc1cccc2nc(Nc3cccc(NC(=O)c4ccc(N5CCN(C)CC5)c(C(F)(F)F)c4)c3)ccc12
LOX IMVI [1]
  inhibition of growth at 10 µM: 197%
HL-60(TB)
  GI50: 1070 nM
EKVX
  GI50: 1830 nM
NCI-H23
  GI50: 2930 nM
NCI-H460
  GI50: 964 nM
HCT-116 [2]
  GI50: 868 nM
  LC50: 4100 nM
  TGI: 1890 nM
HCT-15
  GI50: 937 nM
HT-29
  GI50: 712 nM
  TGI: 1610 nM
  CC50: 3650 nM
KM12
  GI50: 1090 nM
U-251
  GI50: 885 nM
LOX IMVI [3]
  GI50: 873 nM
  TGI: 1570 nM
  CC50: 2830 nM
MDA-MB-435
  GI50: 878 nM
SK-MEL-5
  GI50: 1520 nM
IGROV-1
  GI50: 1250 nM
  LC50: 25600 nM
  TGI: 4240 nM
OVCAR-4
  GI50: 1430 nM
OVCAR-5
  GI50: 1530 nM
NCI/ADR-RES
  GI50: 1500 nM
SK-OV-3
  GI50: 1730 nM
ACHN
  GI50: 1530 nM
UO-31
  GI50: 734 nM
  LC50 (concentration killing 50% of cells): 3040 nM
  TGI: 1490 nM
PC-3
  GI50: 1260 nM
DU-145
  GI50: 1810 nM
Hs-578T
  GI50: 1070 nM
BT-549
  GI50: 2790 nM
MDA-MB-468
  GI50: 1110 nM
  LC50: 18400 nM
  TGI: 3650 nM
[4]
  viability at 48 h, 3 µM: 86.9%
HCT-116 [5]
  viability at 1.25 µM: 82.7%
HCT-116 [6]
  Activity: 4.7%
HCT-116 [7]
  Activity: 4.1%
HCT-116 [8]
  Activity: 8.6%
HCT-116 [9]
  viability at 5 µM: 85.1%
HCT-116 [10]
  Activity: 7.9%
HCT-116 [11]
  Activity: 2.2%
HCT-116 [12]
  Activity: 1.7%
HCT-116 [13]
  Activity: 2.7%
HCT-116 [14]
  viability at 2.5 µM: 79.5%
HCT-116 [15]
  Activity: 2%
HCT-116 [16]
  Activity: 29.6%
HCT-116 [17]
  Activity: 5.4%
[18]
  IC50: 370 nM

## CCN1CCN(c2cc(C(=O)Nc3cccc(Nc4ccc5c(OC)cccc5n4)c3)cc(C(F)(F)F)c2)CC1
LOX IMVI [1]
  inhibition of growth at 10 µM: 194%
HL-60(TB)
  GI50: 3820 nM
EKVX
  GI50: 3070 nM
NCI-H23
  GI50: 3410 nM
NCI-H460
  GI50: 1340 nM
HCT-116 [2]
  GI50: 872 nM
  LC50: 12400 nM
  TGI: 3540 nM
HCT-15
  GI50: 798 nM
HT-29
  GI50: 572 nM
  TGI: 1210 nM
  CC50: 2560 nM
KM12
  GI50: 1710 nM
U-251
  GI50: 1360 nM
LOX IMVI [3]
  GI50: 780 nM
  TGI: 1960 nM
  CC50: 7040 nM
MDA-MB-435
  GI50: 1160 nM
SK-MEL-5
  GI50: 1550 nM
IGROV-1
  GI50: 924 nM
  LC50: 20000 nM
  TGI: 5230 nM
OVCAR-4
  GI50: 1570 nM
OVCAR-5
  GI50: 2780 nM
NCI/ADR-RES
  GI50: 1290 nM
SK-OV-3
  GI50: 4600 nM
ACHN
  GI50: 1210 nM
UO-31
  GI50: 746 nM
  LC50 (concentration killing 50% of cells): 12400 nM
  TGI: 3880 nM
PC-3
  GI50: 805 nM
DU-145
  GI50: 1880 nM
Hs-578T
  GI50: 3610 nM
BT-549
  GI50: 3780 nM
MDA-MB-468
  GI50: 749 nM
  LC50: 14600 nM
  TGI: 4050 nM
[4]
  viability at 48 h, 3 µM: 76.8%
HCT-116 [5]
  viability at 1.25 µM: 86.5%
HCT-116 [6]
  Activity: 12.5%
HCT-116 [7]
  Activity: 0.9%
HCT-116 [8]
  Activity: 0.6%
HCT-116 [9]
  viability at 5 µM: 79.2%
HCT-116 [10]
  Activity: 19.3%
HCT-116 [11]
  Activity: 0.8%
HCT-116 [12]
  Activity: 0.4%
HCT-116 [13]
  Activity: 0.3%
HCT-116 [14]
  viability at 2.5 µM: 78.8%
HCT-116 [15]
  Activity: 1%
HCT-116 [16]
  Activity: 26.8%
HCT-116 [17]
  Activity: 0.6%
[18]
  IC50: 229 nM
